Measurements from patent publication US20120021010A1, “ANTIPLATELET AGENT AND METHODS OF USING THE SAME” (University of Calcutta, priority 2010, published 2012).

Tested on: platelets
Experiment: ADP-induced platelet aggregation, chronolog optical aggregometry
Type: cell-based, human
Conditions: platelets of patient treated with clopidogrel; inset of FIG. 3C
Experimental: In this example, platelet aggregation in the presence of SPIONs and various agonists was examined. The study was carried out using chronolog optical aggregometry.
FIGS. 2A and 2B respectively represent aggregometric results in presence of the agonists arachidonic acid (0.5 mM) and ADP (10 μM). Arachidonic acid is the main target for the antiplatelet drug aspirin and ADP is the main target for the antiplatelet drug clopidogrel. […] Thus, SPIONs cause no change in ADP- and arachidonic acid-induced aggregation of platelets from normal healthy individuals. The 85% to 95% aggregation increase in FIG. 2B can be ignored as the fractional increase is insignificant.

## COC(=O)[C@H](c1ccccc1Cl)N1CCc2sccc2C1 [clopidogrel]
  ADP-induced platelet aggregation in a patient treated with clopidogrel: ADP cannot induce aggregation
